Assay results taken from PubChem BioAssay AID248 (DTP/NCI, 2004).
Several values for one entry are separate records, joined by “and”; a condition that tells them apart may be missing. Equal entries are not always repeated. Toxic doses and inconclusive results are not listed. Cut-off read from the data, not from the text of the source: active = T/C of 150% or more; inactive = T/C below 125%. Square brackets hold non-standard residues; d marks the D form. Peptide text beside a SMILES is read from it. * marks the point of attachment. ξ: configuration not given here. Cbz = O=C(OCc1ccccc1)*; ξL = CC(C)CC(N)C(=O)O

Test system: L1210 leukemia ip in BDF1 mice, survival T/C
Experiment: NCI In Vivo Anticancer Drug Screen. Data for tumor model L1210 Leukemia (intraperitoneal) in B6D2F1 (BDF1) mice
Conditions: endpoint: mean survival time, higher = longer survival
Procedure, shortened: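 Transplanted-tumor mice were given test agent; controls received vehicle only. Survival readings from the two groups were divided (treated over control).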

[1] = dose: 100.0 mg/kg/injection, schedule: Q01DX001 (ip), vehicle: carboxymethylcellulose (CMC)
[2] = dose: 50.0 mg/kg/injection, schedule: Q04DX003 (ip), vehicle: saline
[3] = dose: 100.0 mg/kg/injection, schedule: Q01DX001 (ip), vehicle: saline
[4] = dose: 100.0 mg/kg/injection, schedule: Q04DX003 (ip), vehicle: saline
[5] = dose: 200.0 mg/kg/injection, schedule: Q01DX001 (ip), vehicle: saline
[6] = dose: 200.0 mg/kg/injection, schedule: Q04DX003 (ip), vehicle: saline
[7] = dose: 100.0 mg/kg/injection, schedule: Q01DX009 (ip), vehicle: saline with Tween-80
[8] = dose: 100.0 mg/kg/injection, schedule: Q04DX003 (ip), vehicle: saline with Tween-80
[9] = dose: 200.0 mg/kg/injection, schedule: Q01DX009 (ip), vehicle: saline with Tween-80
[10] = dose: 200.0 mg/kg/injection, schedule: Q04DX003 (ip), vehicle: saline with Tween-80
[11] = dose: 400.0 mg/kg/injection, schedule: Q04DX003 (ip), vehicle: saline with Tween-80
[12] = dose: 50.0 mg/kg/injection, schedule: Q01DX009 (ip), vehicle: saline with Tween-80
[13] = dose: 100.0 mg/kg/injection, schedule: Q01DX001 (ip), vehicle: Klucel (hydroxypropylcellulose) (HPC)
[14] = dose: 200.0 mg/kg/injection, schedule: Q01DX001 (ip), vehicle: Klucel (hydroxypropylcellulose) (HPC)
[15] = dose: 400.0 mg/kg/injection, schedule: Q01DX001 (ip), vehicle: Klucel (hydroxypropylcellulose) (HPC)

Measured: T/C

CCCC[n+]1cccc2ccccc21
inactive: dose: 25.0 mg/kg/injection, schedule: Q01DX001 (ip), vehicle: Klucel (hydroxypropylcellulose) (HPC) 105 % of control | dose: 50.0 mg/kg/injection, schedule: Q01DX001 (ip), vehicle: Klucel (hydroxypropylcellulose) (HPC) 100 % of control | [1] 96 % of control

COC(=O)CNC(=O)C(CC(C)C)NC(=O)OCc1ccccc1 (stereo not given) (Cbz-[ξL]-Gly-OMe)
inactive: dose: 50.0 mg/kg/injection, schedule: Q01DX009 (ip), vehicle: saline 98 % of control | [2] 94 % of control | [3] 97 % of control | dose: 100.0 mg/kg/injection, schedule: Q01DX009 (ip), vehicle: saline 100 % of control | [4] 91 % of control | [5] 94 % of control | dose: 200.0 mg/kg/injection, schedule: Q01DX009 (ip), vehicle: saline 98 % of control | [6] 96 % of control

CCC(CC)NNC(CC)CC
inactive: dose: 75.0 mg/kg/injection, schedule: Q01DX001 (ip), vehicle: other 105 % of control | dose: 75.0 mg/kg/injection, schedule: Q01DX001 (ip), vehicle: saline 98 % of control | dose: 150.0 mg/kg/injection, schedule: Q01DX001 (ip), vehicle: other 98 % of control | dose: 150.0 mg/kg/injection, schedule: Q01DX001 (ip), vehicle: saline 96 % of control | dose: 300.0 mg/kg/injection, schedule: Q01DX001 (ip), vehicle: other 118 % of control

CCCCN(CCCC)CC(O)c1cnc2c(Cl)cc(Cl)cc2c1Cl (stereo not given)
inactive: [7] 101 % of control | [8] 100 % of control | [9] 102 % of control | [10] 102 % of control | [11] 108 % of control

Cn1c(=O)c2c(ncn2C)n(C)c1=O (tested in a mixture with another compound)
inactive: [8] 98 % of control | [10] 101 % of control | [11] 114 % of control

O=C(O)CCC(NC(=O)OCc1ccccc1)C(=O)O (stereo not given)
inactive: [7] 100 % of control | dose: 100.0 mg/kg/injection, schedule: Q04DX003 (ip), vehicle: Klucel (hydroxypropylcellulose) (HPC) 103 % of control | dose: 100.0 mg/kg/injection, schedule: Q04DX003 (ip), vehicle: other 98 % of control | [8] 104 % of control and 95 % of control | [9] 98 % of control | dose: 200.0 mg/kg/injection, schedule: Q04DX003 (ip), vehicle: Klucel (hydroxypropylcellulose) (HPC) 99 % of control | dose: 200.0 mg/kg/injection, schedule: Q04DX003 (ip), vehicle: other 102 % of control | [10] 101 % of control and 92 % of control | dose: 400.0 mg/kg/injection, schedule: Q01DX009 (ip), vehicle: saline with Tween-80 98 % of control | dose: 400.0 mg/kg/injection, schedule: Q04DX003 (ip), vehicle: Klucel (hydroxypropylcellulose) (HPC) 91 % of control | dose: 400.0 mg/kg/injection, schedule: Q04DX003 (ip), vehicle: other 98 % of control | [11] 101 % of control and 104 % of control

COc1ccc(OC)c(/C=N/NC(=O)C[N+](C)(C)C)c1
inactive: [12] 88 % of control | [7] 86 % of control

CCCCCCCCCCCCCCCC(=O)N1CCCN(C(=O)CCCCCCCCCCCCCCC)C1
inactive: dose: 30.0 mg/kg/injection, schedule: Q01DX001 (ip), vehicle: saline 93 % of control | [3] 88 % of control | dose: 300.0 mg/kg/injection, schedule: Q01DX001 (ip), vehicle: saline 94 % of control

Oc1ccc(C(O)(c2ccccc2)c2ccc(O)c3ccccc23)c2ccccc12
inactive: [7] 96 % of control | [9] 91 % of control

Brc1cc(Br)c2[nH]c3c(Br)cc(Br)cc3c2c1
inactive: dose: 100.0 mg/kg/injection, schedule: Q01DX009 (ip), vehicle: Klucel (hydroxypropylcellulose) (HPC) 101 % of control | dose: 200.0 mg/kg/injection, schedule: Q01DX009 (ip), vehicle: Klucel (hydroxypropylcellulose) (HPC) 102 % of control

[Br][Nd]([Br])[Br]
inactive: [2] 96 % of control | [4] 91 % of control | [6] 97 % of control | dose: 400.0 mg/kg/injection, schedule: Q04DX003 (ip), vehicle: saline 86 % of control

O=C1Nc2ccc(Br)cc2C1(O)Cc1cccc([N+](=O)[O-])c1 (stereo not given)
inactive: [12] 90 % of control | [7] 93 % of control | dose: 100.0 mg/kg/injection, schedule: Q04DX002 (ip), vehicle: saline with Tween-80 91 % of control | [9] 90 % of control | dose: 200.0 mg/kg/injection, schedule: Q04DX002 (ip), vehicle: saline with Tween-80 91 % of control

N#CC(C#N)=CN
inactive: [13] 105 % of control | [14] 106 % of control | [15] 101 % of control

CC(C)C(NC(=O)C1CSC(C)(C)N1C=O)C(=O)OC1CCCCC1 (stereo not given)
inactive: [8] 97 % of control | [10] 101 % of control | [11] 90 % of control

CN(C)C(=O)Sc1ccc(C(C)(C)C)cc1
inactive: [13] 95 % of control | [14] 90 % of control | [15] 112 % of control

C[N+](C)(CCc1ccccc1)CC(O)COc1ccccc1 (stereo not given)
inactive: dose: 4.5 mg/kg/injection, schedule: Q01DX009 (ip), vehicle: Klucel (hydroxypropylcellulose) (HPC) 89 % of control | dose: 9.0 mg/kg/injection, schedule: Q01DX009 (ip), vehicle: Klucel (hydroxypropylcellulose) (HPC) 92 % of control | dose: 18.0 mg/kg/injection, schedule: Q01DX009 (ip), vehicle: Klucel (hydroxypropylcellulose) (HPC) 94 % of control | dose: 18.75 mg/kg/injection, schedule: Q04DX003 (ip), vehicle: Klucel (hydroxypropylcellulose) (HPC) 98 % of control

CSc1[nH]c2ncnc(N)c2c1C#N
inactive: dose: 100.0 mg/kg/injection, schedule: Q01DX001 (ip), vehicle: other 88 % of control | dose: 200.0 mg/kg/injection, schedule: Q01DX001 (ip), vehicle: other 101 % of control

COc1cc(/C=C2\C(=O)C=C(C)CC2(C)C)ccc1O
inactive: dose: 25.0 mg/kg/injection, schedule: Q04DX003 (ip), vehicle: saline with Tween-80 92 % of control | dose: 50.0 mg/kg/injection, schedule: Q04DX003 (ip), vehicle: saline with Tween-80 89 % of control | [8] 89 % of control | [10] 90 % of control

COC(=O)c1ccc(N(C)CCC(=O)CN)cc1
inactive: [3] 98 % of control | [5] 101 % of control | dose: 400.0 mg/kg/injection, schedule: Q01DX001 (ip), vehicle: saline 104 % of control

Cc1ccc(S(=O)(=O)N2c3ccccc3-c3ccccc3C(=O)C2Br)cc1 (stereo not given)
inactive: [1] 105 % of control | dose: 200.0 mg/kg/injection, schedule: Q01DX001 (ip), vehicle: carboxymethylcellulose (CMC) 105 % of control | dose: 400.0 mg/kg/injection, schedule: Q01DX001 (ip), vehicle: carboxymethylcellulose (CMC) 124 % of control

O=c1oc(-c2ccc3c(c2)OCO3)nc2ccccc12
inactive: [12] 94 % of control | [7] 94 % of control | [9] 94 % of control

CN(C)C(=O)CCCCC(=O)N(C)C
inactive: dose: 100.0 mg/kg/injection, schedule: Q04DX002 (ip), vehicle: saline 94 % of control | dose: 200.0 mg/kg/injection, schedule: Q04DX002 (ip), vehicle: saline 86 % of control | dose: 400.0 mg/kg/injection, schedule: Q04DX002 (ip), vehicle: saline 105 % of control

COc1cc2c(c(OC)c1OC)-c1ccc(=O)c(N)cc1C(NC(C)=O)CC2 (stereo not given)
inactive: dose: 1.8 mg/kg/injection, schedule: Q01DX Z (ip), vehicle: carboxymethylcellulose (CMC) 97 % of control | dose: 3.7 mg/kg/injection, schedule: Q01DX Z (ip), vehicle: carboxymethylcellulose (CMC) 101 % of control | dose: 7.5 mg/kg/injection, schedule: Q01DX Z (ip), vehicle: carboxymethylcellulose (CMC) 105 % of control | dose: 15.0 mg/kg/injection, schedule: Q01DX Z (ip), vehicle: carboxymethylcellulose (CMC) 105 % of control | dose: 30.0 mg/kg/injection, schedule: Q01DX Z (ip), vehicle: carboxymethylcellulose (CMC) 110 % of control and 112 % of control | dose: 60.0 mg/kg/injection, schedule: Q01DX Z (ip), vehicle: carboxymethylcellulose (CMC) 114 % of control and 122 % of control | dose: 240.0 mg/kg/injection, schedule: Q01DX Z (ip), vehicle: carboxymethylcellulose (CMC) 121 % of control

c1ccc(Nc2nnc(Nc3ccccn3)c3ccccc23)nc1
inactive: [8] 95 % of control | [10] 93 % of control | [11] 96 % of control
